# How the values were obtained:
# [1] = system: LEFCH; test: In-water applied weed control, transplanted paddy rice, greenhouse (Example II); type: in vivo, Leptochloa chinensis (L.) Nees
# [2] = system: CYPRO; test: as above; type: in vivo, Cyperus rotundus L.; conditions: 10 g ai/ha alone
# [3] = system: ECHCG; test: as above; type: in vivo, Echinochloa crus-galli (L.) P. Beauv.
# [4] = system: LEFCH; test: Postemergence foliar-applied weed control, direct seeded rice, greenhouse (Example I); type: in vivo, Leptochloa chinensis (L.) Nees
# [5] = system: ISCRU; test: as above; type: in vivo, Ischaemum rugosum Salisb.; conditions: g ae/ha Compound A Benzyl Ester+g ai/ha saflufenacil: r49 8+0, r50 16+0, r51 0+10, r52 0+20, r53 8+10, r54 16+10, r55 8+20, r56 16+20
# [6] = system: ECHCO; test: as above; type: in vivo, Echinochloa colona (L.) Link; conditions: g ae/ha Compound A Benzyl Ester+g ai/ha saflufenacil: r14 4.38+0, r15 8.75+0, r16 0+10, r17 0+20, r18 4.38+10, r19 8.75+10, r20 4.38+20, r21 8.75+20
# [7] = system: ECHOR; test: In-water applied weed control, transplanted paddy rice, greenhouse (Example II); type: in vivo, Echinochloa oryzoides (Ard.) Fritsch
# [8] = system: SCPMA; test: as above; type: in vivo; conditions: Bifenox (Fox ®) 180 g ai/ha alone
# [9] = system: IPOHE; test: Postemergence foliar-applied weed control, direct seeded rice, greenhouse (Example I); type: in vivo, Ipomoea hederacea Jacq.; conditions: g ae/ha Compound A Benzyl Ester+g ai/ha bifenox (Fox ®): r11 16+0, r12 32+0, r13 0+180, r14 16+180, r15 32+180
# [10] = system: PAPRH; test: Postemergence foliar herbicidal activity of mixtures in cereal crops, greenhouse (Example III); type: in vivo, Papaver rhoeas L.; conditions: foliar-applied
# Description: Seeds of the desired test plant species were planted in Sun Gro MetroMix® 306 planting mixture, which typically has a pH of 6.0 to 6.8 and an organic matter content of about 30 percent, in plastic pots with a surface area of 103.2 square centimeters (cm^2). When required to ensure good germination and healthy plants, a fungicide treatment and/or other chemical or physical treatment was applied. The plants were grown for 7-36 days in a greenhouse with an approximate 14 hour photoperiod which was maintained at about 18° C. during the day and about 17° C. during the night. Nutrients and water were added on a regular basis and supplemental lighting was provided with overhead metal halide 1000-Watt lamps as necessary. The plants were employed for testing when they reached the second or third true leaf stage.
# Treatments consisted of the benzyl ester of 4-amino-3-chloro-5-fluoro-6-(4-chloro-2-fluoro-3-methoxy-phenyl)pyridine-2-carboxylic acid (Compound A), formulated as an SC, a second cereal herbicide alone and then both in combination.
# Other herbicidal components were applied on an active ingredient basis and included PSII-inhibiting herbicides.
# Measured aliquots of benzyl ester of 4-amino-3-chloro-5-fluoro-6-(4-chloro-2-fluoro-3-methoxy-phenyl)pyridine-2-carboxylic acid (Compound A) were placed in 25 milliliter (mL) glass vials and diluted in a volume of 1.25% (v/v) Agri-Dex® crop oil concentrate to obtain stock solutions. Compound requirements are based upon a 12 mL application volume at a rate of 187 liters per hectare (L/ha). Spray solutions of the second cereal herbicide and experimental compound mixtures were prepared by adding the stock solutions to the appropriate amount of dilution solution to form 12 mL spray solution with active ingredients in two- and three-way combinations. Formulated compounds were applied to the plant material with an overhead Mandel track sprayer equipped with an 8002E nozzle calibrated to deliver 187 L/ha over an application area of 0.503 square meters (m^2) at a spray height of 18 inches (46 cm) above average plant canopy. Control plants were sprayed in the same manner with the solvent blank.
# The treated plants and control plants were placed in a greenhouse as described above and watered by sub-irrigation to prevent wash-off of the test compounds. After 20-22 days, the condition of the test plants as compared with that of the control plants was determined visually and scored on a scale of 0 to 100 percent where 0 corresponds to no injury and 100 corresponds to complete kill.
# Colby's equation was used to determine the herbicidal effects expected from the mixtures (Colby, S. R. 1967. Calculation of the synergistic and antagonistic response of herbicide combinations. Weeds 15:20-22.).
# The following equation was used to calculate the expected activity of mixtures containing two active ingredients, A and B: Expected=A+B−(A×B/100)
# [11] = system: CYPIR; test: Postemergence foliar-applied weed control, direct seeded rice, greenhouse (Example I); type: in vivo, Cyperus iria L.
Structure (SMILES),Visual Weed Control (%) - 20 DAA LEFCH Obs ([1]; 10 g ai/ha alone) [%],Visual Weed Control (%) - 20 DAA LEFCH Obs ([1]; 20 g ai/ha alone) [%],Visual Weed Control (%) - 21 DAA LEFCH Obs ([1]; 40 g ai/ha alone) [%],Visual Weed Control (%) - 20 DAA CYPRO Obs [2] [%],Visual Weed Control (%) - 20 DAA ECHCG Obs ([3]; 10 g ai/ha alone) [%],Visual Weed Control (%) - 20 DAA ECHCG Obs ([3]; 20 g ai/ha alone) [%],"Visual Weed Control (%) - 20 DAA LEFCH Obs ([4]; g ae/ha Compound A Acid+g ai/ha saflufenacil: r11 4.38+0, r12 8.75+0, r13 17.5+0, r14 0+5, r15 4.38+5, r16 8.75+5, r17 17.5+5) [%]","Visual Weed Control (%) - 20 DAA LEFCH Obs ([4]; g ae/ha Compound A Benzyl Ester+g ai/ha saflufenacil: r26 8.75+0, r27 17.5+0, r28 0+5, r29 0+10, r30 8.75+5, r31 17.5+5, r32 8.75+10, r33 17.5+10) [%]",Visual Weed Control (%) - 21 DAA ISCRU Obs [5] [%],Visual Weed Control (%) - 20 DAA ECHCO Obs [6] [%],Visual Weed Control (%) - 20 DAA ECHOR Obs ([7]; 10 g ai/ha alone) [%],Visual Weed Control (%) - 20 DAA ECHOR Obs ([7]; 20 g ai/ha alone) [%],Visual Weed Control (%) - 21 DAA SCPMA Obs [8] [%],Visual Weed Control (%) - 21 DAA IPOHE Obs [9] [%],Visual Weed Control (%) - 21 DAA ECHOR Obs ([7]; Bifenox (technical) 720 g ai/ha alone) [%],Visual Weed Control (%) - 21 DAA PAPRH Obs ([10]; 180 g ai/ha alone) [%],Visual Weed Control (%) - 21 DAA PAPRH Obs ([10]; 360 g ai/ha alone) [%],Visual Weed Control (%) - 21 DAA PAPRH Obs ([10]; 780 g ai/ha alone) [%],"Visual Weed Control (%) - 21 DAA CYPIR Obs ([11]; g ae/ha Compound A Benzyl Ester+g ai/ha bifenox (Fox ®): r17 8+0, r18 0+180, r19 0+360, r20 0+720, r21 8+180, r22 8+360, r23 8+720) [%]","Visual Weed Control (%) - 22 DAA CYPIR Obs ([11]; g ae/ha Compound A Benzyl Ester+g ai/ha bifenox (technical): r23 8+0, r24 16+0, r25 0+180, r26 0+720, r27 8+180, r28 16+180, r29 8+720, r30 16+720) [%]"
"CC(C)N(C)S(=O)(=O)NC(=O)c1cc(-n2c(=O)cc(C(F)(F)F)n(C)c2=O)c(F)cc1Cl [Saflufenacil, 2-chloro-5-[3,6-dihydro-3-methyl-2,6-dioxo-4-(trifluoromethyl)-1(2H)-pyrimidinyl]-4-fluoro-N-[[methyl(1-methylethyl)amino]sulfonyl]benzamide, reference compound]",0,0,5,0,0,10,0,0,0,40,0,0,,,,,,,,
"COC(=O)c1cc(Oc2ccc(Cl)cc2Cl)ccc1[N+](=O)[O-] [Bifenox, methyl 5-(2,4-dichlorophenoxy)-2-nitrobenzoate]",,,,,,,,,,,,,40,55,40,5,8,8,0,0
